# Substitutions are numbered along the chain they refer to.
# How the values were obtained:
# ABCG2 [1] = molecular target: T1, ABCG2 (Homo sapiens, UniProt Q9UNQ0); experiment: biochemical
# T1 construct: ABCG2 in insect cell membrane vesicles (total membranes)
# T1 sequence (Q9UNQ0 1-655): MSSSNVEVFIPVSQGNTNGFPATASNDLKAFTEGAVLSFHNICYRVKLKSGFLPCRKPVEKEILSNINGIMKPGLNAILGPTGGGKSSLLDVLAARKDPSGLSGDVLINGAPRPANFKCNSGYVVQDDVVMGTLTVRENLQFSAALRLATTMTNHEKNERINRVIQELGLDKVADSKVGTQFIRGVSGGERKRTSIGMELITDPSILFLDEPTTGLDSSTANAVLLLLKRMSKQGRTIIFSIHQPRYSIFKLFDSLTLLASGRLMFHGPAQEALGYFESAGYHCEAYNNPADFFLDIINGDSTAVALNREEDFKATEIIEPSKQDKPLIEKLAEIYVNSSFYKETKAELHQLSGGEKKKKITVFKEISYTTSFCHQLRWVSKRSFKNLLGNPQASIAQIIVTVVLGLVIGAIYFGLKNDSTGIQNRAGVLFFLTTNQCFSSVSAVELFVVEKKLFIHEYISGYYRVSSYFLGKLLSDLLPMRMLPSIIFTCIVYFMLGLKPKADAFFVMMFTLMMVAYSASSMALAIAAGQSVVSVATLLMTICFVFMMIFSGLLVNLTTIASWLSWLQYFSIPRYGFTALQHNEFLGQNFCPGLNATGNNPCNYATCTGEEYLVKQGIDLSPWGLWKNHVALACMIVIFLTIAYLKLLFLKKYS
# ABCG2 [2] = molecular target: T2, ABCG2 (Homo sapiens, UniProt Q9UNQ0, R482T); experiment: tritium-labeled mitoxantrone accumulation in transfected cells
# T2 sequence (Q9UNQ0 1-655 R482T): T1 sequence (Q9UNQ0 1-655) with R482T
EC50 (ABCG2 [1]),Compound,tritium-labeled mitoxantrone accumulation in transfected cells (ABCG2 [2])
140 nM,Cc1cc(O)c(-c2ccc([C@@H](C)CN(C)C)cc2)c2c1[nH]c(=O)c1sccc12 [OTS964],–
–,O=C1c2c(O)ccc(O)c2C(=O)c2c(NCCNCCO)ccc(NCCNCCO)c21 [mitoxantrone],"ABCG2-mediated efflux of mitoxantrone, which is an established substrate of ABCG2, in R482T-mutant-ABCG2-overexpressing cell line"

# Reference: article PMC7917255 (Frontiers in Pharmacology, 2021)
